One may read the IC50 as the midpoint of a concentration-inhibition curve.

In brackets after ≈: the same amount, converted by molar mass.

One assay relates to Influenza A virus. Description: Concentration required for reduction of plaque against influenza A. It is filed as functional, organism-based, unidentified influenza virus.
In another assay the test system is Influenza B virus. Nature of the assay: Concentration required for reduction of plaque against influenza B. Type of assay: functional, organism-based, unidentified influenza virus.
Setting [1] is: Influenza A virus, read-out: IC50.
[2] abbreviates: Influenza B virus, read-out: IC50.

For the compound `CCCN(CCc1ccccc1)C(=O)[C@@H]1OC(C(=O)O)=C[C@H](O)[C@H]1NC(C)=O`, the IC50 in the assay with Influenza A virus (setting [1]) was 5 ng/mL (≈ 12.8 nM); in the assay with Influenza B virus (setting [2]) it was over 100000 ng/mL.

`CCCN(CCC)C(=O)[C@@H]1OC(C(=O)O)=C[C@H](N)[C@H]1NC(C)=O`: the IC50 came out at 2 ng/mL (≈ 6.11 nM) in the assay with Influenza A virus (setting [1]) and 700 ng/mL (≈ 2140 nM) in the assay with Influenza B virus (setting [2]).

Take `CCCN(CCC)C(=O)[C@@H]1OC(C(=O)O)=C[C@H](N)[C@H]1NC(=O)CC`: the IC50 was 0.2 ng/mL (≈ 0.586 nM) with Influenza A virus (setting [1]) and 3000 ng/mL (≈ 8790 nM) with Influenza B virus (setting [2]).

In the case of `CCCN(CCc1ccccc1)C(=O)[C@@H]1OC(C(=O)O)=C[C@H](N)[C@H]1NC(=O)C(F)(F)F`, the IC50 with Influenza A virus (setting [1]) is 4 ng/mL (≈ 9.02 nM); with Influenza B virus (setting [2]), 56 ng/mL (≈ 126 nM).

As to `CCCN(CCC)C(=O)[C@@H]1OC(C(=O)O)=C[C@H](N)[C@H]1NC(=O)C(F)(F)F`, the IC50 in the assay with Influenza A virus (setting [1]) is 0.01 ng/mL (≈ 0.0262 nM); in the assay with Influenza B virus (setting [2]), 300 ng/mL (≈ 787 nM).

Consider `CCCN(CCc1ccccc1)C(=O)[C@@H]1OC(C(=O)O)=C[C@H](N)[C@H]1NC(C)=O`, for which the IC50 in the assay with Influenza A virus came out at 30 ng/mL (≈ 77 nM); in the assay on Influenza A virus (setting [1]), 30 ng/mL (≈ 77 nM); with Influenza B virus, 300 ng/mL (≈ 770 nM); in the assay on Influenza B virus (setting [2]), 280 ng/mL (≈ 719 nM).

For `CC(=O)N[C@H]1[C@H]([C@H](O)[C@H](O)CO)OC(C(=O)O)=C[C@@H]1NC(=N)N` [ZANAMIVIR], the IC50 with Influenza A virus (setting [1]) was determined as 5 ng/mL (≈ 15 nM); in the assay with Influenza B virus (setting [2]) it was 2 ng/mL (≈ 6.02 nM).

The values above are taken from ChEMBL document CHEMBL1134218, “Sialidase inhibitors related to zanamivir. Further SAR studies of 4-amino-4H-pyran-2-carboxylic acid-6-propylamides” (Bioorg Med Chem Lett, 2001).
